Like-named read-outs stand apart in the source and are kept apart here.
Assays:
[1] = Increase in blood pressure; type: in vivo; conditions: rats and dogs
Experimental: (§1) As stated above, the compounds of formula I have advantageous central nervous system stimulating properties. Side-effects, as they are encountered on administration of amphetamine-type stimulants, are produced to a much lesser extent by the 4,4-diphenylpiperidine compounds, if at all. […] The tests were carried out according to known and accepted pharmacological standard test methods.
pressure (rats and increase

Tachyphylaxis = conditions: in vivo
Experimental: as §1
g Tachyphylaxis None Pronounced

albino mouse [2] = experiment: Locomotory activity (restlessness in movements); type: in vivo; conditions: albino mouse 5 mg/kg. perorally
Experimental: as §1

albino mouse [3] = experiment: Antagonism in the albino mouse of perphenazine catalepsy; type: in vivo; conditions: for ED50: Mus musculus, po, perphenazine 10 mg/kg p.o., drug per os, Examples 28, 29: 50 to 300 mg/kg; for Anticataleptic action (in words): mouse, in vivo
Experimental: (§2) Antagonism in the albino mouse
(§3) Com- Preventive Curative catalepsy
(§4) of tion dation p.o.) i.p.)
(§5) *drugs administered per os
(§6) **administered in doses from 50 to 300 mg/kg

albino mouse [4] = experiment: Saliva secretion; type: in vivo
Experimental: as §1
No secretion Pronounced

[5] = Acute toxicity in the albino mouse; conditions: mouse, in vivo, Table 2
Experimental: as §1
(§7) a Acute toxicity 150 mg./kg. 100 mg./kg.

albino mouse [6] = experiment: Antagonism in the albino mouse of reserpine (preventive and curative ptosis/sedation); type: in vivo; conditions: reserpine 2mg/kg sc.; for ED50: Mus musculus, po
Experimental: as §2, §3, §4, §5, §6

Exophthalmus = conditions: in vivo
Experimental: as §1
f Exophthalmus Absent Present

albino mouse [7] = experiment: General behaviour of the albino mouse with different doses; type: in vivo; conditions: for Locomotory activity / Restlessness Stereotype / Salivation / Vigilance / Vigilance of the animal (in words): albino mouse; for Locomotory activity / Restlessness Stereotype / Salivation / Vigilance: different doses per os, Examples 28, 29: 50 to 300 mg/kg; for Sedation of animals (in words): mouse, in vivo
Experimental: Acute toxi- General behaviour of the albino
city in the mouse with different doses*
as §5, §6

albino mouse [8] = experiment: Antagonism in the albino mouse of tremorine tremor; type: in vivo; conditions: tremorine 15 mg/kg i.p., drug per os, Examples 28, 29: 50 to 300 mg/kg
Experimental: as §2, §4, §5, §6

[9] = Potentiating effect on noradrenaline; conditions: in vivo
Experimental: as §1

albino mouse [10] = experiment: Acute toxicity in the albino mouse; conditions: mouse, in vivo
Experimental: as §1, §7

Neuroleptic effects = conditions: in vivo
Source text: (§8) These compounds are useful as neuroleptics.

[11] = Potentiation of the effect of hexobarbital; conditions: in vivo
Source text: as §8

[12] = po, p.o., read-out: Acute toxicity in the albino mouse LD50 p.o.
[13] = doses from 50 to 300 mg/kg per os
[14] = 18 h, doses from 50 to 300 mg/kg per os
[15] = 18 h, doses from 50 to 300 mg/kg per os, read-out: Reserpine antagonism, Preventive Sedation ED50, 18 h
[16] = drug per os, Examples 28, 29: 50 to 300 mg/kg

Structure (SMILES): CC(C)N1CCC(c2ccccc2)(c2ccccc2)CC1 [Example 4, 1-Isopropyl-4,4-diphenylpiperidine]
- Increase in blood pressure [1]: Slight increase
- Tachyphylaxis (Tachyphylaxis): None
- Locomotory activity (restlessness in movements), increase by (albino mouse [2]): 20%
- ED50 (albino mouse [3]): 7 mg/kg
- Saliva secretion (albino mouse [4]): No secretion
- LD50 ([5]; iv, i.v., read-out: Acute toxicity in the albino mouse LD50 i.v.): 20 mg/kg
- LD50 [5, 12]: 150 mg/kg
- ED50 (albino mouse [6]; drug per os, Examples 28, 29: 50 to 300 mg/kg, read-out: Reserpine antagonism, Curative Sedation ED50): 13 mg/kg
- ED50 (albino mouse [6]; drug per os, Examples 28, 29: 50 to 300 mg/kg, read-out: Reserpine antagonism, Curative ptosis ED50): > 50 mg/kg
- ED50 (albino mouse [6]; drug per os, read-out: Reserpine antagonism, Preventive Sedation ED50): 3 mg/kg
- ED50 (albino mouse [6]; drug per os, read-out: Reserpine antagonism, Preventive ptosis ED50): 16 mg/kg
- Exophthalmus (Exophthalmus): Absent
- Locomotory activity (albino mouse [7]): (+)
- Restlessness Stereotype (albino mouse [7]): .phi. (no effect)
- Salivation (albino mouse [7]): .phi. (no effect)
- Vigilance (albino mouse [7]): ++
- ED50 (albino mouse [8]; Mus musculus, po): 1.5 mg/kg
- Potentiating effect on noradrenaline [9]: Present

Structure (SMILES): O=C(CCCN1CCC(c2ccccc2)(c2ccccc2)CC1)c1ccc(F)cc1 [Example 28, 1-[3-(p-Fluorobenzoyl)propyl]-4,4-diphenylpiperidine]
- ED50 (albino mouse [3]): 50 mg/kg
- Anticataleptic action (in words) (albino mouse [3]): exhibit anticataleptic action
- Acute toxicity (in words) (albino mouse [10]): very low acute toxicity
- LD50 [5, 12]: 3800 mg/kg
- Reserpine antagonism, Preventive Sedation ED50, 3 h (albino mouse [6]; [13]): .phi. (no effect)
- Reserpine antagonism, Preventive ptosis ED50, 3 h (albino mouse [6]; [13]): .phi. (no effect)
- Reserpine antagonism, Preventive ptosis ED50, 18 h (albino mouse [6]; [14]): .phi. (no effect)
- ED50 (albino mouse [6]; [15]): 300 mg/kg
- Reserpine antagonism, Curative Sedation ED50 (albino mouse [6]; [16]): .phi. (no effect)
- Reserpine antagonism, Curative ptosis ED50 (albino mouse [6]; [16]): .phi. (no effect)
- Neuroleptic effects (in words) (Neuroleptic effects): exhibit neuroleptic effects
- Effect on hexobarbital (in words) [11]: potentiate the effect of hexobarbital
- Vigilance of the animal (in words) (albino mouse [7]): somewhat reduce vigilance
- Locomotory activity (albino mouse [7]): - (decrease)
- Restlessness Stereotype (albino mouse [7]): .phi. (no effect)
- Salivation (albino mouse [7]): .phi. (no effect)
- Vigilance (albino mouse [7]): - (decrease)
- Sedation of animals (in words) (albino mouse [7]): induce sedation
- Tremorine tremor antagonism ED50 (albino mouse [8]): .phi. (no effect)

Structure (SMILES): O=C(CCCN1CCC(c2ccccc2)(c2ccccc2)CC1)c1ccccc1 [Example 29, 1-(3-Benzoylpropyl)-4,4-diphenylpiperidine]
- ED50 (albino mouse [3]): 50 mg/kg
- Anticataleptic action (in words) (albino mouse [3]): exhibit anticataleptic action
- Acute toxicity (in words) (albino mouse [10]): very low acute toxicity
- Reserpine antagonism, Preventive Sedation ED50, 3 h (albino mouse [6]; [13]): .phi. (no effect)
- Reserpine antagonism, Preventive ptosis ED50, 3 h (albino mouse [6]; [13]): .phi. (no effect)
- Reserpine antagonism, Preventive ptosis ED50, 18 h (albino mouse [6]; [14]): .phi. (no effect)
- ED50 (albino mouse [6]; [15]): 100 mg/kg
- Reserpine antagonism, Curative Sedation ED50 (albino mouse [6]; [16]): .phi. (no effect)
- Reserpine antagonism, Curative ptosis ED50 (albino mouse [6]; [16]): .phi. (no effect)
- Neuroleptic effects (in words) (Neuroleptic effects): exhibit neuroleptic effects
- Effect on hexobarbital (in words) [11]: potentiate the effect of hexobarbital
- Vigilance of the animal (in words) (albino mouse [7]): somewhat reduce vigilance
- Locomotory activity (albino mouse [7]): - (decrease)
- Restlessness Stereotype (albino mouse [7]): .phi. (no effect)
- Salivation (albino mouse [7]): .phi. (no effect)
- Vigilance (albino mouse [7]): - (decrease)
- Sedation of animals (in words) (albino mouse [7]): induce sedation
- Tremorine tremor antagonism ED50 (albino mouse [8]): .phi. (no effect)

Source: patent publication US4016280A, “4,4-Diarylpiperidine compositions and use” (Byk Gulden Lomberg Chemische Fabrik GmbH, priority 1969, dated 1977)
